From patent US6521262B2, “Solid instant-release forms of administration and process for producing the same” (Heidelberg Pharma Holding GmbH, priority 1996, dated 2003)

| viscosity of the solution (aqueous 7% solution of the active substance) | viscosity (2% aqueous solution of the active substance) | SMILES |
| --- | --- | --- |
| 500-600 mpa*sec | – | CCCCCCCCCCCCSCC(COP(=O)([O-])OCC1OC(n2cc(C)c(=O)[nH]c2=O)CC1N=[N+]=[N-])OCCCCCCCCCC.[Na+] (centres unmarked) [Example 1 active substance, Na salt of 3′-azido-3′-deoxy-5′-thymidylic acid-mono[3-(dodecyl-thio)-2-decyloxypropyl]-ester] |
| – | 6 mpas*sec | CCCCCCCCCCCCSCC(COP(=O)([O-])OCC1OC(n2cc(C)c(=O)[nH]c2=O)CC1F)OCCCCCCCCCC.[Na+] (centres unmarked) [Example 3 active substance, Na salt of 3′-fluoro-3′-deoxy-5′-thymidylic acid-mono[3-(dodecyl-thio)-2-decyloxypropyl]-ester] |
